The structures appear in SMILES notation.

The IC50 is the point on the concentration scale where inhibition reaches its midpoint. Lower therefore signals greater potency in that assay.

One test relates to PAF-induced hypotension. Put plainly: Inhibition of PAF-induced hypotension. Type of test: in vivo, Wistar-Imamichi rats. Particulars: Rattus norvegicus, iv, 1 min; anesthetized rats; l-C16:0 PAF 10 ng/kg i.v.; test compound i.v. cumulatively, 1 min before PAF; read-out: Inhibitory effect ID50. As to the method:
Inhibition of PAF-induced hypotension
The test animals used were Wistar-Imamichi rats, each weighing from 350 to 450 g, anesthetized with Inactin (90 mg/kd, intraperitoneally).
Blood pressure was continuously measured throughout the experiment through a cannula inserted into the femoral artery. Each drug sample to be tested was intravenously injected through a cannula inserted into the femoral vein.
At first, l-C16:0 PAF was injected intravenously in amounts of 10 ng/kg at each injection at intervals of 5 minutes until the degree of the hypotensive response became constant. Then, each drug sample to be treated was intravenously injected. After one minute, the same dose of PAF was administered again. The drug sample was cumulatively administered. From its inhibition rate against the PAF-induced hypotensive effect, the 50% inhibitive dose (ID50) was determined, and is regarded as an index of PAF-antagonist activity. For administration, the PAF was dissolved in physiological saline solution containing 0.25% w/v of bovine serum albumin (BSA). The compounds under test were dissolved in dimethylformamide for use.
CV-3988 is disclosed in U.S. Pat. No. 4,408,052, and is structurally related to PAF itself.
In this Table, the compounds of the invention are identified by the number of the foregoing Example in which they were prepared.

For test [1], the system named is blood platelet (PAF-induced aggregation). Put plainly: Inhibitory effect in vitro against PAF-induced blood platelet aggregation. Type of test: cell-based. Particulars: Oryctolagus cuniculus, 5 min; rabbit platelet rich plasma; l-C16:0 PAF final 10^-8 ~3×10^-8 M; 5 min observation. As for the experimental part:
Inhibitory effect in vitro against PAF-induced blood platelet aggregation
Blood samples were drawn from a rabbit and one part by volume of each sample was immediately mixed with 1/9 part of a 3.8% w/v aqueous solution of sodium citrate. The samples were centrifuged at 150×G at room temperature for 15 minutes to obtain a platelet rich plasma (PRP) fraction from the upper layer. The remains were further centrifuged at 1,000×G for 15 minutes to obtain a platelet poor plasma (PPP) fraction from the upper layer. The PRP and PPP fractions were mixed appropriately, to obtain a sample in which the final count of blood platelets was adjusted to be 6×10^5 per ul. According to the method reported by Born et al. [G. V. R. Born et al.: J. Physiol. 62, 67-68 (1962)], blood platelet aggregation was determined by an increase in light transmission measured using an aggregometer. 3 ul of a solution of the test compound in dimethyl sulfoxide were added to 272 ul of PRP, and, after 1 minute, 25 ul of a physiological saline solution containing l-c16:0 PAF (at a final concentration of 10^-8 ~3×10^-8 M) were added. […] At the end of this value and the value of PAF-induced aggregation which was observed when dimethyl sulfoxide only was used without the addition of any test compound. IC50 values were calculated from the dose-response curve.

As for `CCCOc1ccc(/C(=C/C(=O)N2CCN(C(=O)c3cc(OC)c(OC)c(OC)c3)CC2)c2ccccc2)cc1` [Example 53, 1-[(E)-3-Phenyl-3-(4-propoxyphenyl)acryloyl]-4-(3,4,5-trimethoxybenzoyl)piperazine], the ED50 in the test with PAF-induced hypotension is 0.0074 mg/kg. This compound displayed an IC50 in test [1] of 52 nM.

Regarding `CCc1ccc(/C(=C/C(=O)N2CCN(C(=O)c3cc(OC)c(OC)c(OC)c3)CC2)c2ccc(Cl)c(Cl)c2)cc1` [Example 52, 1-[(Z)-3-(3,4-Dichlorphenyl)-3-(4-ethylphenyl)acryloyl]-4-(3,4,5-trimethoxybenzoyl)piperazine], the ED50 in the test with PAF-induced hypotension turned out to be 0.0084 mg/kg. In test [1], this compound displayed an IC50 of 30 nM.

For the compound `CCCOc1cccc(/C(=C/C(=O)N2CCN(C(=O)c3cc(OC)c(OC)c(OC)c3)CC2)c2ccccc2)c1` [Example 76, 1-[(E)-3-(3-Propoxyphenyl)-3-phenylacryloyl]-4-(3,4,5-trimethoxybenzoyl)piperazine], the ED50 with PAF-induced hypotension was found to be 0.0092 mg/kg. Besides, half-maximal inhibition in test [1] (IC50) was put at 83 nM.

For the compound `COc1ccc(/C(=C/C(=O)N2CCN(C(=O)c3cc(OC)c(OC)c(OC)c3)CC2)c2cccc(F)c2)cc1` [Example 74, 1-[(Z)-3-(4-Methoxyphenyl)-3-(3-fluorophenyl)acryloyl]-4-(3,4,5-trimethoxybenzoyl)piperazine], in the test with PAF-induced hypotension, the ED50 was found to be 0.0055 mg/kg. Moreover, the IC50 in test [1] was found to be 58 nM.

On to `COc1cc(C(=O)N2CCN(C(=O)C=C(c3cccs3)c3cccs3)CC2)cc(OC)c1OC` [Example 4, 1-[3,3-Bis(2-thienyl)acryloyl]-4-(3,4,5-trimethoxybenzoyl)piperazine], for which the ED50 in the test with PAF-induced hypotension came out at 0.074 mg/kg.

As to `COc1cc(C(=O)N2CCN(C(=O)C=C(c3ccc(Cl)cc3)c3ccc(Cl)cc3)CC2)cc(OC)c1OC` [Example 3, 1-[3,3-Bis(4-chlorophenyl)acryloyl]-4-(3,4,5-trimethoxybenzoyl)piperazine], the ED50 in the test on PAF-induced hypotension was found to be 0.048 mg/kg. In addition, the IC50 in test [1] came to 220 nM.

With `COc1ccc(/C(=C/C(=O)N2CCN(C(=O)c3cc(OC)c(OC)c(OC)c3)CC2)c2cccc(C)c2)cc1OC` [Example 39, 1-[(E)-3-(3,4-Dimethoxyphenyl)-3-(3-methylphenyl)acryloyl]-4-(3,4,5-trimethoxybenzoyl)piperazine], the ED50 in the test on PAF-induced hypotension came out at 0.008 mg/kg.

With `COc1ccc(/C(=C\C(=O)N2CCN(C(=O)c3cc(OC)c(OC)c(OC)c3)CC2)c2cccc(C)c2)cc1OC` [Example 40, 1-[(Z)-3-(3,4-Dimethoxyphenyl)-3-(3-methylphenyl)acryloyl]-4-(3,4,5-trimethoxybenzoyl)piperazine], the IC50 in test [1] came to 110 nM.

Consider `CCc1ccc(/C(=C/C(=O)N2CCN(C(=O)c3cc(OC)c(OC)c(OC)c3)CC2)c2cc(Cl)cc(Cl)c2)cc1` [Example 86, 1-[(Z)-3-(4-Ethylphenyl)-3-(3,5-dichlorophenyl)acryloyl]-4-(3,4,5-trimethoxybenzoyl)piperazine], for which, in the test on PAF-induced hypotension, the ED50 is 0.015 mg/kg.

As for `COc1ccc(/C(=C\C(=O)N2CCN(C(=O)c3cc(OC)c(OC)c(OC)c3)CC2)c2ccc(Cl)cc2)cc1OC` [Example 16, 1-[(Z)-3-(4-Chlorophenyl)-3-(3,4-dimethoxyphenyl)acryloyl]-4-(3,4,5-trimethoxybenzoyl)piperazine], the ED50 in the test on PAF-induced hypotension was determined as 0.074 mg/kg.

Regarding `CCCOc1cccc(/C(=C/C(=O)N2CCN(C(=O)c3cc(OC)c(OC)c(OC)c3)CC2)c2cccc(Cl)c2)c1` [Example 70, 1-[(Z)-3-(3-Propoxyphenyl)-3-(3-chlorophenyl)acryloyl]-4-(3,4,5-trimethoxybenzoyl)piperazine], in the test on PAF-induced hypotension, the ED50 came out at 0.0033 mg/kg. The compound also came in with an IC50 in test [1] of 30 nM.

Turning to `COc1ccc(/C(=C/C(=O)N2CCN(C(=O)c3cc(OC)c(OC)c(OC)c3)CC2)c2cc(Cl)ccc2Cl)cc1` [Example 80, 1-[(Z)-3-(4-Methoxyphenyl)-3-(2,5-dichlorophenyl)acryloyl]-4-(3,4,5-trimethoxybenzoyl)piperazine], the ED50 in the test on PAF-induced hypotension was 0.0065 mg/kg. This compound also displayed an IC50 in test [1] of 28 nM.

For the compound `COc1ccc(/C(=C/C(=O)N2CCN(C(=O)c3cc(OC)c(OC)c(OC)c3)CC2)c2c(Cl)cccc2Cl)cc1` [Example 79, 1-[(Z)-3-(4-Methoxyphenyl)-3-(2,6-dichlorophenyl)acryloyl]-4-(3,4,5-trimethoxybenzoyl)piperazine], in the test with PAF-induced hypotension, the ED50 came to 0.0066 mg/kg.

For `COc1ccc(/C(=C/C(=O)N2CCN(C(=O)c3cc(OC)c(OC)c(OC)c3)CC2)c2cccc(Cl)c2)cc1OC` [Example 17, 1-[(Z)-3-(3-Chlorophenyl)-3-(3,4-dimethoxyphenyl)acryloyl]-4-(3,4,5-trimethoxybenzoyl)piperazine], the ED50 with PAF-induced hypotension was found to be 0.0083 mg/kg. In test [1], the IC50 amounted to 63 nM.

As to `COc1ccc(/C(=C/C(=O)N2CCN(C(=O)c3cc(OC)c(OC)c(OC)c3)CC2)c2cccc(C(F)(F)F)c2)cc1OC` [Example 33, 1-[(E)-3-(3,4-Dimethoxyphenyl)-3-(3-trifluoromethylphenyl)acryloyl]-4-(3,4,5-trimethoxybenzoyl)piperazine], the ED50 in the test with PAF-induced hypotension turned out to be 0.0078 mg/kg. In addition, the IC50 in test [1] is 43 nM.

Regarding `COc1ccc(/C(=C\C(=O)N2CCN(C(=O)c3cc(OC)c(OC)c(OC)c3)CC2)c2cccc(C(F)(F)F)c2)cc1OC` [Example 34, 1-[(Z)-3-(3,4-Dimethoxyphenyl)-3-(3-trifluoromethylphenyl)acryloyl]-4-(3,4,5-trimethoxybenzoyl)piperazine], in the test on PAF-induced hypotension, the ED50 worked out at 0.021 mg/kg.

In the case of `COc1ccc(/C(=C\C(=O)N2CCN(C(=O)c3cc(OC)c(OC)c(OC)c3)CC2)c2ccc(C)cc2)cc1OC` [Example 36, 1-[(Z)-3-(3,4-Dimethoxyphenyl)-3-(4-methylphenyl)acryloyl]-4-(3,4,5-trimethoxybenzoyl)piperazine], the ED50 with PAF-induced hypotension amounted to 0.039 mg/kg. In addition, half-maximal inhibition in test [1] (IC50) was put at 220 nM.

As for `COc1ccc(C(=CC(=O)N2CCN(C(=O)c3cc(OC)c(OC)c(OC)c3)CC2)c2ccc(OC)c(OC)c2)cc1OC` [Example 28, 1-[Bis(3,4-dimethoxyphenyl)acryloyl]-4-(3,4,5-trimethoxybenzoyl)piperazine], the ED50 with PAF-induced hypotension was 0.039 mg/kg. Moreover, the midpoint of inhibition in test [1], the IC50, lay at 230 nM.

In test [1], `COc1cc(C(=O)N2CCN(C(=O)/C=C(/c3cccc(C)c3)c3ccc(Cl)c(Cl)c3)CC2)cc(OC)c1OC` [Example 37, 1-[(Z)-3-(3,4-Dichlorophenyl)-3-(3-methylphenyl)acryloyl]-4-(3,4,5-trimethoxybenzoyl)piperazine] returned an IC50 of 110 nM.

On to `COc1ccc(/C(=C/C(=O)N2CCN(C(=O)c3cc(OC)c(OC)c(OC)c3)CC2)c2ccc(C)cc2)cc1OC` [Example 35, 1-[(E)-3-(3,4-Dimethoxyphenyl)-3-(4-methylphenyl)acryloyl]-4-(3,4,5-trimethoxybenzoyl)piperazine], for which the ED50 with PAF-induced hypotension was determined as 0.012 mg/kg. Moreover, the IC50 in test [1] came out at 110 nM.

Regarding `COc1ccc(/C(=C/C(=O)N2CCN(C(=O)c3cc(OC)c(OC)c(OC)c3)CC2)c2ccc(Cl)cc2Cl)cc1` [Example 78, 1-[(Z)-3-(4-Methoxyphenyl)-3-(2,4-dichlorophenyl)acryloyl]-4-(3,4,5-trimethoxybenzoyl)piperazine], the ED50 in the test with PAF-induced hypotension is 0.0073 mg/kg. The compound also registered an IC50 in test [1] of 29 nM.

Take `COc1cc(C(=O)N2CCN(C(=O)/C=C(\c3ccccc3)c3ccc4ccccc4c3)CC2)cc(OC)c1OC` [Example 48, 1-[(E)-3-(2-Naphthyl)-3-phenylacryloyl]-4-(3,4,5-trimethoxybenzoyl)piperazine]: in the test on PAF-induced hypotension, the ED50 was found to be 0.012 mg/kg.

Regarding `COc1cc(C(=O)N2CCN(C(=O)C=C(c3ccc(F)cc3)c3ccc(F)cc3)CC2)cc(OC)c1OC` [Example 25, 1[Bis(4-fluorophenyl)acryloyl]-4-(3,4,5-trimethoxybenzoyl)piperazine], in the test on PAF-induced hypotension, the ED50 is 0.052 mg/kg.

As to `CCOc1ccc(/C(=C/C(=O)N2CCN(C(=O)c3cc(OC)c(OC)c(OC)c3)CC2)c2cccc(F)c2)cc1` [Example 88, 1-[(Z)-3-(4-Ethoxyphenyl)-3-(3-fluorophenyl)acryloyl]-4-(3,4,5-trimethoxybenzoyl)piperazine], the ED50 in the test with PAF-induced hypotension worked out at 0.092 mg/kg.

On to `COc1ccc(/C(=C\C(=O)N2CCN(C(=O)c3cc(OC)c(OC)c(OC)c3)CC2)c2cccc(Cl)c2)cc1OC` [Example 18, 1-[(E)-3-(3-Chlorophenyl)-3-(3,4-dimethoxyphenyl)acryloyl]-4-(3,4,5-trimethoxybenzoyl)piperazine], for which the ED50 with PAF-induced hypotension is 0.026 mg/kg.

Regarding `COc1ccc(/C(=C\C(=O)N2CCN(C(=O)c3cc(OC)c(OC)c(OC)c3)CC2)c2ccccc2)cc1OC` [Example 8, 1-[(Z)-3-(3,4-Dimethoxyphenyl)cinnamoyl]-4-(3,4,5-trimethoxybenzoyl)piperazine], the ED50 in the test on PAF-induced hypotension is 0.058 mg/kg.

These data come from patent US5192766A, “N-acryloylpiperazine derivatives, their preparation and their use as PAF antagonists” (Sankyo Company, Limited, priority 1989, dated 1993).
